# From PMC4673880, “Structure and substrate selectivity of the 750-kDa α6β6 holoenzyme of geranyl-CoA carboxylase” (Nature Communications, 2015)
# Molecular target: T1, PfGCC (geranyl-CoA carboxylase holoenzyme, α6β6) (Pseudomonas protegens, UniProt Q4K8Z5)
# T1 construct: gene atuC; bicistronic; beta N-terminal His6-tagged (tag not removed), alpha untagged; expressed in E. coli BL21 Star (DE3); 750-kDa α6β6 dodecamer; with Geranyl-CoA carboxylase alpha subunit (biotin-containing; BC, BT and BCCP domains)
# Test: coupled pyruvate kinase / lactate dehydrogenase assay, ATP hydrolysis as NADH loss at […] nm
# Assay type: biochemical
# Details: pH 8.0, 0.5 mM ATP, 8 mM MgCl2, 40 mM KHCO3, 250 mM KCl; cis/trans mixture, only ~25% cis, concentration counted as total; read-out: apparent Km
substance,measurement,value
geranyl-CoA,Km,50 µM
